Consider one compound from ChEMBL document CHEMBL5338754, “Identification of Binding Sites in the Nucleotide-Binding Domain of P-Glycoprotein for a Potent and Nontoxic Modulator, the Amine-Containing Monomeric Flavonoid FM04” (J Med Chem, 2023).

Data set [1] deals with T1, ATP-dependent translocase ABCB1 (Homo sapiens, UniProt P08183). Put plainly: Negative allosteric modulator activity at P-gp in human LCC6MDR cells overexpressing P-gp assessed as reversal of P-gp mediated paclitaxel resistance activity by measuring relative fold at 1 uM incubated for 5 days by MTS assay. The format is cell-based. The settings on record: 120 h, time 5 day.
T1 sequence (P08183 whole entry): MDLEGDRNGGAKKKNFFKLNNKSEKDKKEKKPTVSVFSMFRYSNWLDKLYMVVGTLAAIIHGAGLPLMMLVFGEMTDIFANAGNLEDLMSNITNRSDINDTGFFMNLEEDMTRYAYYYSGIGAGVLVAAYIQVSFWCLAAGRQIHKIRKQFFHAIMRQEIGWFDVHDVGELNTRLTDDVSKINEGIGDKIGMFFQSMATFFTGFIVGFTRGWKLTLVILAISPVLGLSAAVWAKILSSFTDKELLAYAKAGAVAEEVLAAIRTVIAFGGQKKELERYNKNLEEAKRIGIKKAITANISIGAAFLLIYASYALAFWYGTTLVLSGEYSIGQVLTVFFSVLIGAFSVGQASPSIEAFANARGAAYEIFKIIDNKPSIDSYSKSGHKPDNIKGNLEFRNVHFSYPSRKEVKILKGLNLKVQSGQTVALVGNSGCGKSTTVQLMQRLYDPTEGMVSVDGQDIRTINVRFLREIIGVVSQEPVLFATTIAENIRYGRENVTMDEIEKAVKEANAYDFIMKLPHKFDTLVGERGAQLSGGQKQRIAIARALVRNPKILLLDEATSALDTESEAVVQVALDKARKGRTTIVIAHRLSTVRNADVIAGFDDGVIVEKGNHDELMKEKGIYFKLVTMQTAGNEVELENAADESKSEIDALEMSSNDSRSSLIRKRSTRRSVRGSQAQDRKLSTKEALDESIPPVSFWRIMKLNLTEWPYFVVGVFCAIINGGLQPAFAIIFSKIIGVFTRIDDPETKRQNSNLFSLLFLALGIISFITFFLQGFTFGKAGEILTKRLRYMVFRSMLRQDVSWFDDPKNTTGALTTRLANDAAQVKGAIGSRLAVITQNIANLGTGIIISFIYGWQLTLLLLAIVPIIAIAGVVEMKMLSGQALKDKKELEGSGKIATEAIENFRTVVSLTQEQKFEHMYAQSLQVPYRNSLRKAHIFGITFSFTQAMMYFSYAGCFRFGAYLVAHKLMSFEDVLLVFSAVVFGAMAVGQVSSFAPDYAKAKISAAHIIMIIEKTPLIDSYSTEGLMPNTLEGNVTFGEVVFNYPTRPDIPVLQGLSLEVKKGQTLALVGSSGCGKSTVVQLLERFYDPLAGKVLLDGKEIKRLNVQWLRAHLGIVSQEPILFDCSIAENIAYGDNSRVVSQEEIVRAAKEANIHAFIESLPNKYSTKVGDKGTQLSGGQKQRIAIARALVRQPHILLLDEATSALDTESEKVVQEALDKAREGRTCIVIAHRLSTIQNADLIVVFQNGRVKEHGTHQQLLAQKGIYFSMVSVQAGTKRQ

For data set [2], the target named is T1, ATP-dependent translocase ABCB1. Put plainly: Binding affinity to human P-glycoprotein expressed in LCC6MDR cells assessed as stabilization of protein by measuring fluorescence at 100 uM incubated for 1 hr by Western blotting analysis. The format is cell-based. For orientation: A western blot detects proteins with antibodies after separation by electrophoresis.

The target in data set [3] is ATP-dependent translocase ABCB1 (Homo sapiens, UniProt P08183, Q1193K). Put plainly: Negative allosteric modulator activity at human P-gp Q1193K mutant expressed in HEK293FT cells assessed as reversal of P-gp mediated PTX resistance by measuring sensitivity fold change incubated for 5 days by MTS assay. The format is cell-based. The settings on record: 120 h, time 5 day. A general note: Tetrazolium dyes change colour on reduction, which living cells bring about.

The target in data set [4] is T2, ATP-dependent translocase ABCB1 (Homo sapiens, UniProt P08183, I1115L). The data set can be described thus: Negative allosteric modulator activity at human P-gp I1115L mutant expressed in HEK293FT cells assessed as reversal of P-gp mediated PTX resistance by measuring sensitivity fold change incubated for 5 days by MTS assay. The format is cell-based. The settings on record: 120 h, time 5 day.
T2 sequence (P08183 whole entry I1115L): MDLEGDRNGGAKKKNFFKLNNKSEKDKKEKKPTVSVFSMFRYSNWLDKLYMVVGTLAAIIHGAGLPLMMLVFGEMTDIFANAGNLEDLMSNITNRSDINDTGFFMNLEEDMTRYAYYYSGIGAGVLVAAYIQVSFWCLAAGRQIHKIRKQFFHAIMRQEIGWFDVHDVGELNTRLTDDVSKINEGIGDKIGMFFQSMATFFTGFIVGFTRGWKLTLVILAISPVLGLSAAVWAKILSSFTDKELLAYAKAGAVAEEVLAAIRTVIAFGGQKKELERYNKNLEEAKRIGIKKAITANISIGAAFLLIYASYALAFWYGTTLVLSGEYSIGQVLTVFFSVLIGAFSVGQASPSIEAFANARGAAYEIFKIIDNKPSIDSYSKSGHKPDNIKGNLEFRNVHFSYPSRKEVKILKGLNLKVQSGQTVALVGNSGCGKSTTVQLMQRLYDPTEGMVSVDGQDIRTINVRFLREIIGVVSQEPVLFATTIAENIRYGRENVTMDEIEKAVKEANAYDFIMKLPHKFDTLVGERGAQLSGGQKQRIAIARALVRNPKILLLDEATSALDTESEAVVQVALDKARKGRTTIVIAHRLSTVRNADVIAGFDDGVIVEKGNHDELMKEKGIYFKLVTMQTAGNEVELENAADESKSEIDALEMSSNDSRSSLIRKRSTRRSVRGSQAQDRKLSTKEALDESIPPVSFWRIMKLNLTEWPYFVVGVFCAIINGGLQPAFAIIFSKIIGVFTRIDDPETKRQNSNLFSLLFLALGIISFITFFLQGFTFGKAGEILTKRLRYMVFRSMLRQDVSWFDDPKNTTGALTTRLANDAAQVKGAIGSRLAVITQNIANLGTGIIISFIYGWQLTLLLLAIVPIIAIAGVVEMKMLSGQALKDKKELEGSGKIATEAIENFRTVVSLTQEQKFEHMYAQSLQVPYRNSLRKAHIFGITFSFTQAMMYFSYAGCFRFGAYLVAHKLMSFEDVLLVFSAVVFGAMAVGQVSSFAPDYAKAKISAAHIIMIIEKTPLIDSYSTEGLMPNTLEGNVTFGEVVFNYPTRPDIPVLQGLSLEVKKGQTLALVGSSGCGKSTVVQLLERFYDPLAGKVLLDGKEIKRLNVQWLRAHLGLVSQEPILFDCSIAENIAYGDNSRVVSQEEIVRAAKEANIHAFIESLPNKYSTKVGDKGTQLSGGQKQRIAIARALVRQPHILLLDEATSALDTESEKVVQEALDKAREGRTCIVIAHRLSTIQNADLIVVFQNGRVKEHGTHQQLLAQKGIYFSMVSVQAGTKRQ

Data set [5] concerns the target T3, ATP-dependent translocase ABCB1 (Homo sapiens, UniProt P08183, T1226F). Put plainly: Negative allosteric modulator activity at human P-gp T1226F mutant expressed in HEK293FT cells assessed as reversal of P-gp mediated PTX resistance by measuring sensitivity fold change incubated for 5 days by MTS assay. The format is cell-based. The settings on record: 120 h, time 5 day.

In data set [6] the target is ATP-dependent translocase ABCB1 (Homo sapiens, UniProt P08183, G1114V). Put plainly: Negative allosteric modulator activity at human P-gp G1114V mutant expressed in HEK293FT cells assessed as increase in intracellular doxorubicin accumulation using doxorubicin as substrate at 1 uM incubated for 150 mins by microplate reader assay (reference value: 102 +/- 2.6 %). It is filed as cell-based. The conditions noted are these: 2.5 h.

In data set [7] the target is ATP-dependent translocase ABCB1 (Homo sapiens, UniProt P08183, I1115K). The data set can be described thus: Negative allosteric modulator activity at human P-gp I1115K mutant expressed in HEK293FT cells assessed as increase in intracellular doxorubicin accumulation using doxorubicin as substrate at 1 uM incubated for 150 mins by microplate reader assay (reference value: 97.8 +/- 3.1 %). It is filed as cell-based. The conditions noted are these: 2.5 h.

In data set [8] the target is T2, ATP-dependent translocase ABCB1. Put plainly: Negative allosteric modulator activity at human P-gp I1115L mutant expressed in HEK293FT cells assessed as increase in intracellular doxorubicin accumulation using doxorubicin as substrate at 1 uM incubated for 150 mins by microplate reader assay (reference value: 58.9 +/- 2.2 %). It is filed as cell-based. The settings on record: 2.5 h.

Data set [9] addresses ATP-dependent translocase ABCB1 (Homo sapiens, UniProt P08183, T1226W). The data set can be described thus: Negative allosteric modulator activity at human P-gp T1226W mutant expressed in HEK293FT cells assessed as increase in intracellular doxorubicin accumulation using doxorubicin as substrate at 1 uM incubated for 150 mins by microplate reader assay (reference value: 66.7 +/- 1.5 %). It is filed as cell-based. The conditions noted are these: 2.5 h.

The target of data set [10] is T3, ATP-dependent translocase ABCB1. Put plainly: Negative allosteric modulator activity at human P-gp T1226F mutant expressed in HEK293FT cells assessed as increase in intracellular doxorubicin accumulation using doxorubicin as substrate at 1 uM incubated for 150 mins by microplate reader assay (reference value: 67.6 +/- 1.9 %). The format is cell-based. The conditions noted are these: 2.5 h.

In data set [11] the target is T1, ATP-dependent translocase ABCB1. Put plainly: Negative allosteric modulator activity at human wildtype P-gp expressed in HEK293FT cells assessed as fold change in intracellular doxorubicin accumulation using doxorubicin as substrate at 1 uM incubated for 150 mins by microplate reader assay relative to DMSO. It is filed as cell-based. The conditions noted are these: 2.5 h.

Data set [12] deals with ATP-dependent translocase ABCB1 (Homo sapiens, UniProt P08183, Q1193C). Put plainly: Negative allosteric modulator activity at human P-gp Q1193C mutant expressed in HEK293FT cells assessed as fold change in intracellular doxorubicin accumulation using doxorubicin as substrate at 1 uM incubated for 150 mins by microplate reader assay relative to DMSO. The format is cell-based. The settings on record: 2.5 h.

Data set [13] concerns the target ATP-dependent translocase ABCB1 (Homo sapiens, UniProt P08183, I1115N). Put plainly: Negative allosteric modulator activity at human P-gp I1115N mutant expressed in HEK293FT cells assessed as fold change in intracellular doxorubicin accumulation using doxorubicin as substrate at 1 uM incubated for 150 mins by microplate reader assay relative to DMSO. It is filed as cell-based. The conditions noted are these: 2.5 h.

Data set [14] deals with T4, ATP-dependent translocase ABCB1 (Homo sapiens, UniProt P08183, I1115F). The data set can be described thus: Negative allosteric modulator activity at human P-gp I1115F mutant expressed in HEK293FT cells assessed as fold change in intracellular doxorubicin accumulation using doxorubicin as substrate at 1 uM incubated for 150 mins by microplate reader assay relative to DMSO. The settings on record: 2.5 h. It is filed as cell-based.
T4 sequence (P08183 whole entry I1115F): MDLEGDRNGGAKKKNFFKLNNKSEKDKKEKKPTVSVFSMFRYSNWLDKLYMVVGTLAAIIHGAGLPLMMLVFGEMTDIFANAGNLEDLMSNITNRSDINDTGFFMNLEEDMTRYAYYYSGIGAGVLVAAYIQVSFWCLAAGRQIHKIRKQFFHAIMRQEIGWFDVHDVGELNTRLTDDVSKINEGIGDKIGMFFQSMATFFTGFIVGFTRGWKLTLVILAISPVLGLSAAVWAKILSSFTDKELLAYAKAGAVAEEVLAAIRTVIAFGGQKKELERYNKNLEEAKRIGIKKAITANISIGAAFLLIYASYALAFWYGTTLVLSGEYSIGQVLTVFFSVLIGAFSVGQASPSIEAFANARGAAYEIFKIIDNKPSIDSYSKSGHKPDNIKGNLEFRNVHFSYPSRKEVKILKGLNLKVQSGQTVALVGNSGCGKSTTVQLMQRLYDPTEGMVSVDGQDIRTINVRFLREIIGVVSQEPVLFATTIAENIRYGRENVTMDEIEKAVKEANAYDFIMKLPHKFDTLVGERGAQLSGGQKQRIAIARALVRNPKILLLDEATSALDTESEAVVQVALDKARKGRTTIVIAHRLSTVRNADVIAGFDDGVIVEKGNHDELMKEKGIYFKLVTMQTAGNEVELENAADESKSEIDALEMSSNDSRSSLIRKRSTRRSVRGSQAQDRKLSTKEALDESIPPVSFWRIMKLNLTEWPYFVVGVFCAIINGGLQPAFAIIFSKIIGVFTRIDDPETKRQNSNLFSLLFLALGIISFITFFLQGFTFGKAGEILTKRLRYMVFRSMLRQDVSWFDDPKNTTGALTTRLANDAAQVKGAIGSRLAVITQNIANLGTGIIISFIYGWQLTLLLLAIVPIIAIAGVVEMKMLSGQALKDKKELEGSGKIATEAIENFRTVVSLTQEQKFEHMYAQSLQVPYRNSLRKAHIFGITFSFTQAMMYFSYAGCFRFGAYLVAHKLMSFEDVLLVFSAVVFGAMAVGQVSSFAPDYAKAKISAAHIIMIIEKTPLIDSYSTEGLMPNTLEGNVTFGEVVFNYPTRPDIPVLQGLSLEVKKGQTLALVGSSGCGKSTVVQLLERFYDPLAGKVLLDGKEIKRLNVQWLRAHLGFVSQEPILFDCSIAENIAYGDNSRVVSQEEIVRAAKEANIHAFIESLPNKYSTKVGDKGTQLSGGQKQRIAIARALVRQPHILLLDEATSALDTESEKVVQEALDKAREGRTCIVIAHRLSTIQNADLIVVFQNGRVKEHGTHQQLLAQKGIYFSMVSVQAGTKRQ

Data set [15] deals with ATP-dependent translocase ABCB1 (Homo sapiens, UniProt P08183, Q1193A). The data set can be described thus: Activation of P-gp ATPase activity in human P-gp Q1193A mutant expressed in HEK293FT cell microsomes at 20 uM incubated for 1 hr in presence of ATP by Glo-luminescence based microplate reader assay (reference value: 0.38 +/- 0.04 pmol/min/microg). More on the design: species or system Microsome.

Data set [16] concerns the target T4, ATP-dependent translocase ABCB1. The data set can be described thus: Activation of P-gp ATPase activity in human P-gp I1115F mutant expressed in HEK293FT cell microsomes at 20 uM incubated for 1 hr in presence of ATP by Glo-luminescence based microplate reader assay (reference value: 0.21 +/- 0.05 pmol/min/microg). More on the design: species or system Microsome.

Data set [17] addresses ATP-dependent translocase ABCB1 (Homo sapiens, UniProt P08183, Q1193N). Put plainly: Activation of P-gp ATPase activity in human P-gp Q1193N mutant expressed in HEK293FT cell microsomes at 20 uM incubated for 1 hr in presence of ATP by Glo-luminescence based microplate reader assay (reference value: 0.34 +/- 0.05 pmol/min/microg). Also on record: species or system Microsome.

In data set [18] the target is P-gp (ABCB1) Q1193A mutant (Homo sapiens, UniProt P08183, Q1193A). The data set can be described thus: Activation of P-gp ATPase activity in human P-gp Q1193A mutant expressed in HEK293FT cell microsomes assessed as fold change of ATPase activity at 20 uM incubated for 1 hr in presence of ATP by Glo-luminescence based microplate reader assay relative to DMSO. More on the design: species or system Microsome. The settings on record: read-out: FC.

Data set [19] has as its target P-gp (ABCB1) Q1193N mutant (Homo sapiens, UniProt P08183, Q1193N). The data set can be described thus: Activation of P-gp ATPase activity in human P-gp Q1193N mutant expressed in HEK293FT cell microsomes assessed as fold change of ATPase activity at 20 uM incubated for 1 hr in presence of ATP by Glo-luminescence based microplate reader assay relative to DMSO. Also on record: species or system Microsome. The settings on record: read-out: FC.

The target in another data set is P-gp (ABCB1) wildtype (Homo sapiens, UniProt P08183). Put plainly: Activation of P-gp ATPase activity in wildtype human P-gp expressed in HEK293FT cell microsomes assessed as fold change of ATPase activity at 20 uM incubated for 1 hr in presence of ATP by Glo-luminescence based microplate reader assay relative to DMSO. Also on record: species or system Microsome. The settings on record: microsomes of HEK293FT cells expressing wildtype human P-gp, read-out: FC.

T3 sequence (P08183 whole entry T1226F): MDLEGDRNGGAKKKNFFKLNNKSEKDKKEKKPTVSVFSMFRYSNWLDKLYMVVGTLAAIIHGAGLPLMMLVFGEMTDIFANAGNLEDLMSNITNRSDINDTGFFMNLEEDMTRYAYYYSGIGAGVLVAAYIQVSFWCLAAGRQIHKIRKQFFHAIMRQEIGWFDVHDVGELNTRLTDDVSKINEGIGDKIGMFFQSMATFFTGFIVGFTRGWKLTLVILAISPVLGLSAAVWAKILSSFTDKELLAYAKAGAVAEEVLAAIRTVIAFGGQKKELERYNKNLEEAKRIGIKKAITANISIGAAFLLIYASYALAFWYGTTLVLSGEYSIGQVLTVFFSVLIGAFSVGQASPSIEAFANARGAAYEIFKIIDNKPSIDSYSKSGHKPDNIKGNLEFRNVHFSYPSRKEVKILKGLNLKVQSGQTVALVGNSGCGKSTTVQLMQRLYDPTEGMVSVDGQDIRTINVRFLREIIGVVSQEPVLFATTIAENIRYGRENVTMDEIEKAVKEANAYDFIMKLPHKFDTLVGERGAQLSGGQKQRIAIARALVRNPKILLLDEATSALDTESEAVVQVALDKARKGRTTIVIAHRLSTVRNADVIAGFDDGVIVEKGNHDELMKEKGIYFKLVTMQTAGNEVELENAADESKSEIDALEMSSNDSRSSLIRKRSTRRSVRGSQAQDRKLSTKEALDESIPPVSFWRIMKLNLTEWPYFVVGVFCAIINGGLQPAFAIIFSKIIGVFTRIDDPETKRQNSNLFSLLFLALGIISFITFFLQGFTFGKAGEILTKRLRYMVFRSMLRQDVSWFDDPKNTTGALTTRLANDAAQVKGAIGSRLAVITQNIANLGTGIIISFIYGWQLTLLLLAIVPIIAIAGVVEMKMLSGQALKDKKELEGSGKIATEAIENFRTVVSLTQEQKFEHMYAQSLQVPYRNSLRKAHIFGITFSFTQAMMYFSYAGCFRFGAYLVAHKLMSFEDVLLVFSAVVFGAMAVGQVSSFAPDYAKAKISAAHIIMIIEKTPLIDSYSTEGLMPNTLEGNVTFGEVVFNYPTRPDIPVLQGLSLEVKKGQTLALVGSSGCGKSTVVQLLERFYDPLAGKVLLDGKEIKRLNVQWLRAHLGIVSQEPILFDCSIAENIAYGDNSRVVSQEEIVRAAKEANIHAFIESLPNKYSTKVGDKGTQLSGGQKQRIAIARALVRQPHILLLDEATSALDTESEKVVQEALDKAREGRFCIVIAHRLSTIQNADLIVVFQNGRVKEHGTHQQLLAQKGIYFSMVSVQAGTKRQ

As to `O=c1cc(-c2ccc(OCCOCCNCc3ccccc3)cc2)oc2ccccc12`, the “fold change (FC)” value in data set [1] came out at 34.1; in data set [3], 9.4; in data set [4], 45.8; in [5] it was 59.4; in data set [11] it was 1.9; in data set [12], 1.3. Also, the “fold change (FC)” value worked out at 1 in [13] and 1.3 in data set [14]. The Activity result is recorded as “Active” in data set [2]; 102.5% in data set [6]; 100.1% in data set [7]; 97.2% in data set [8]; 102.4% in data set [9]; 100.3% in data set [10]. Moreover, the Activity in [15] stood at 0.42 pmol/min/µg; in [16], 0.25 pmol/min/µg; in [17], 0.58 pmol/min/µg. Also, the results for the fold induction at 1 h, 20 µM (in [18]; in data set [19]; on P-gp (ABCB1) wildtype) were 1.1, 1.7 and 1.6, respectively.
